# Entries after “also recorded” stand apart in the source; their conditions may differ. Where two headings read alike, the source gives them in different places.
# Experiments:
# NR1/NR2C receptors [1] = biological target: T1, NR1/NR2C receptors (Rattus norvegicus, UniProt Q00961); experiment: Two-electrode voltage-clamp, recombinant NR1/NR2C in Xenopus oocytes; format: cell-based; details: for Slope: Control (no CIQ)
# NR1/NR2D receptors [2] = biological target: T2, NR1/NR2D receptors (Rattus norvegicus, UniProt Q62645); experiment: Two-electrode voltage-clamp, recombinant NR1/NR2D in Xenopus oocytes; format: cell-based; details: for Slope: Control (no CIQ)
# T2 sequence (Q62645 28-1323, other chains not shown): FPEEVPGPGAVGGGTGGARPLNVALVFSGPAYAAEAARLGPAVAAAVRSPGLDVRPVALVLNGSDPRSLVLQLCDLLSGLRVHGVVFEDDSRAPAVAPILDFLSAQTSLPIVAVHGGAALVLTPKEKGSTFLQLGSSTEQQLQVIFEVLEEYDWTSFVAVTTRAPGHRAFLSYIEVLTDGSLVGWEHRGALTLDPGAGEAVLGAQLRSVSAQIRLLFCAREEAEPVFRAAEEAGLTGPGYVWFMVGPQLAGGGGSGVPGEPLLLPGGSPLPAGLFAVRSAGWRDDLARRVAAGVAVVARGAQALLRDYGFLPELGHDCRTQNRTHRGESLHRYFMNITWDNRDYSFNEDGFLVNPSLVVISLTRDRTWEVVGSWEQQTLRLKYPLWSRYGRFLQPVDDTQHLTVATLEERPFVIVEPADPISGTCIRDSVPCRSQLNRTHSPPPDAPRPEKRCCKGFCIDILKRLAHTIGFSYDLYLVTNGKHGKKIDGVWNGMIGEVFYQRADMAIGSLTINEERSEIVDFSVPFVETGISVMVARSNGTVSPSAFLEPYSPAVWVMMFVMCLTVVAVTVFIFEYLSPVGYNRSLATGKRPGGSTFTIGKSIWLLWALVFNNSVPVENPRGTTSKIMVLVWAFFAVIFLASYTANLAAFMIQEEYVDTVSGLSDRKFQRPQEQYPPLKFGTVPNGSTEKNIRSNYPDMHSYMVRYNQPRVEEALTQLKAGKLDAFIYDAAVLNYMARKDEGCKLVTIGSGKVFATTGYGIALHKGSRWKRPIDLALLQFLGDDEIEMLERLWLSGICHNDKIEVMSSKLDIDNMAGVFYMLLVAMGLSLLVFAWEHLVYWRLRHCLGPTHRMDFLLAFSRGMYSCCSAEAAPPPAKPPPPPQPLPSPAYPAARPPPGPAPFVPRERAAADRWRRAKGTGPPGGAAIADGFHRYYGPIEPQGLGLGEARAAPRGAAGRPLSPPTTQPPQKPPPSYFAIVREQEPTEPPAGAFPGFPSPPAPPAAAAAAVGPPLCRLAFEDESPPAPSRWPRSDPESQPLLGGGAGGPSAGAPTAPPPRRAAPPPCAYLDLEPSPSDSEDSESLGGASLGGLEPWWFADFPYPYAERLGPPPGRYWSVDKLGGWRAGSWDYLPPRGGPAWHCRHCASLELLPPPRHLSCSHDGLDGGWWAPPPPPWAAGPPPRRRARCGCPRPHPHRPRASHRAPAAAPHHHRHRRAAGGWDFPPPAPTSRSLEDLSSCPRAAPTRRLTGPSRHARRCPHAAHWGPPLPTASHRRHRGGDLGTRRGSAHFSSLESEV
# NR1/NR2A receptors [3] = experiment: Two-electrode voltage-clamp, recombinant NR1/NR2A in Xenopus oocytes; format: cell-based, rat
# NR1/NR2B receptors [4] = experiment: Two-electrode voltage-clamp, recombinant NR1/NR2B in Xenopus oocytes; format: cell-based, rat
# AMPA (GluR1) receptor = experiment: Two-electrode voltage-clamp, AMPA receptor GluR1 in oocytes; format: cell-based; details: 10 μM CIQ, 100 μM glutamate
# GluR2 receptor = experiment: Two-electrode voltage-clamp, GluR2 in oocytes; format: cell-based; details: 10 μM CIQ, 100 μM glutamate
# GluR3 receptor = experiment: Two-electrode voltage-clamp, GluR3 in oocytes; format: cell-based; details: 10 μM CIQ, 100 μM glutamate
# GluR4 receptor = experiment: Two-electrode voltage-clamp, GluR4 in oocytes; format: cell-based; details: 10 μM CIQ, 100 μM glutamate
# GluR5 receptor = experiment: Two-electrode voltage-clamp, GluR5 in oocytes; format: cell-based; details: 10 μM CIQ; 100 μM glutamate; concanavalin-A pretreated oocytes
# kainate (GluR6) receptor = experiment: Two-electrode voltage-clamp, kainate receptor GluR6 in oocytes; format: cell-based; details: 10 μM CIQ; 100 μM glutamate; concanavalin-A pretreated oocytes
# NR1/NR2C receptors [5] = biological target: NR1/NR2C receptors (Rattus norvegicus, UniProt P35439+Q00961); experiment: Whole-cell voltage-clamp, NR1/NR2C in HEK 293 cells; format: cell-based
# Sequence of NR1/NR2C receptors (Rattus norvegicus, UniProt P35439+Q00961) (Q00961 20-1237, other chains not shown): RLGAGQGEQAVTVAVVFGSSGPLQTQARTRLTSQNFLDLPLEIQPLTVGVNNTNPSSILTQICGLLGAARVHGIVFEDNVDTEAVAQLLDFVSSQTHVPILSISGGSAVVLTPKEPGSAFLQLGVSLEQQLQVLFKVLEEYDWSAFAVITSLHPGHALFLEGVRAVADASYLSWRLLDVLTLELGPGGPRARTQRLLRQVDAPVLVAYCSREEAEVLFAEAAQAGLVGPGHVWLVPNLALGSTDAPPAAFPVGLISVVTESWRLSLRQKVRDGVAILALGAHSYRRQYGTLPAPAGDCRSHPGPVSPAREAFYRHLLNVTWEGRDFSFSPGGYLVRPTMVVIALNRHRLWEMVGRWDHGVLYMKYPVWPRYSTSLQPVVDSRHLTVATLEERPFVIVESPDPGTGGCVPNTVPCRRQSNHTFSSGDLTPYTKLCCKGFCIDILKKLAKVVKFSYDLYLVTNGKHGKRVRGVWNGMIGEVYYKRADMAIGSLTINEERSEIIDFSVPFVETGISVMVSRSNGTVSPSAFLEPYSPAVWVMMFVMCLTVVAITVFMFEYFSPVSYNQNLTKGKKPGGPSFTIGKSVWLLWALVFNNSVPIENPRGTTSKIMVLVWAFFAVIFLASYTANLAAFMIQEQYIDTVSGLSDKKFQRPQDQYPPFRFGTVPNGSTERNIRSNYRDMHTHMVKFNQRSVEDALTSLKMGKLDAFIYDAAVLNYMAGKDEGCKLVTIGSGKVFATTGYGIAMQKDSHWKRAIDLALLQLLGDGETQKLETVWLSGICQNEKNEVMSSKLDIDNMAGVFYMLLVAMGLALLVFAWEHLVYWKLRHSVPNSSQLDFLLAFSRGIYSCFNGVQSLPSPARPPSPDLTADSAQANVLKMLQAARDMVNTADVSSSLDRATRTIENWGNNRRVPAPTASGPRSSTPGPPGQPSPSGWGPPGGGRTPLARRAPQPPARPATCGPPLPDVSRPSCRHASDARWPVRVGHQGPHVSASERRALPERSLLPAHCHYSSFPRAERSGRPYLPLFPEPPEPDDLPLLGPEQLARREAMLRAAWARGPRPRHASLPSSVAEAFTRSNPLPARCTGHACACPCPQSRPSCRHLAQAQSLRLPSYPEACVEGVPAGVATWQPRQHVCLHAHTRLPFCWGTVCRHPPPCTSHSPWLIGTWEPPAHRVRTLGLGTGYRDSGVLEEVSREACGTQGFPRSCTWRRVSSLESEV
# NR1/NR2C receptors [6] = biological target: T1, NR1/NR2C receptors; experiment: as above; format: cell-based
# NR1/NR2D receptors [7] = biological target: T2, NR1/NR2D receptors; experiment: Whole-cell voltage-clamp, NR1/NR2D in HEK 293 cells; format: cell-based
# NR1/NR2A receptors [8] = experiment: Whole-cell voltage-clamp, NR1/NR2A in HEK 293 cells; format: cell-based, rat; details: concentration-effect relationship
# NR1/NR2B receptors [9] = experiment: Whole-cell voltage-clamp, NR1/NR2B in HEK 293 cells; format: cell-based, rat; details: 20 μM CIQ
# NR1/NR2D receptors [10] = biological target: T2, NR1/NR2D receptors; experiment: Single channel recording, outside-out patches with NR1/NR2D; format: cell-based; details: 10 μM CIQ
# [11] = test system: NR2A-(2D L+M1e) chimeric receptor; experiment: Oocyte recording of chimera NR2A-; format: cell-based, rat; details: 10 μM CIQ plus 100 μM glutamate and 30 μM glycine
# [12] = test system: NR2A with ATD-S1 linker (L) of NR2D; experiment: Oocyte recording of NR2A with NR2D ATD-S1 linker; format: cell-based, rat; details: oocytes
# [13] = test system: NR2A with residues 590-594 of NR2D; experiment: Oocyte recording of NR2A with NR2D residues 590-594 alone; format: cell-based, rat; details: oocytes
# [14] = test system: 2D-(2A L) chimeric receptor; experiment: Oocyte recording of chimera 2D-; format: cell-based, rat; details: oocytes
# [15] = test system: 2D-(2A ATD+L) chimeric receptor; experiment: Oocyte recording of chimera 2D-; format: cell-based, rat; details: oocytes
# NR1/NR2D(T592I) = experiment: Oocyte recording of mutant NR1/NR2D; format: cell-based, rat; details: oocytes
# [16] = test system: NR2A(I567T) with linker (L) between NR2D ATD and S1; experiment: Oocyte recording of NR2A; format: cell-based, rat; details: 10 μM CIQ; oocytes
# [17] = test system: native NMDA receptors in subthalamic neurons; format: cell-based, rat
# [18] = test system: native NMDA receptors in CA1 hippocampal pyramidal neurons; format: cell-based, rat; details: 20 μM CIQ; pressure-applied NMDA and glycine
# [19] = Maximum solubility by nephelometer; format: physicochemical; details: kinetic from dmso stock
# [20] = test system: NMDA receptors containing the NR2C or NR2D subunit; experiment: Potentiation of NR2C- or NR2D-containing NMDA receptors; format: cell-based; details: read-out: EC50 for enhancement of receptor responses; abstract summary value
# [21] = test system: 2A-(2D L+S1M1M2M3S2) chimeric receptor; experiment: Oocyte recording of chimera 2A-; format: cell-based, rat; details: 10 μM CIQ plus 100 μM glutamate and 30 μM glycine
# [22] = test system: 2A-(2D L+S1M1) chimeric receptor; experiment: Oocyte recording of chimera 2A-; format: cell-based, rat; details: 10 μM CIQ plus 100 μM glutamate and 30 μM glycine
# [23] = test system: 2A-(2D L+S1M1b) chimeric receptor; experiment: Oocyte recording of chimera 2A-; format: cell-based, rat; details: 10 μM CIQ plus 100 μM glutamate and 30 μM glycine
# [24] = test system: 2A-(2D L+S1M1c) chimeric receptor; experiment: Oocyte recording of chimera 2A-; format: cell-based, rat; details: 10 μM CIQ plus 100 μM glutamate and 30 μM glycine
# NR1/NR2A* receptors = experiment: Oocyte recording of NR1/NR2A*; details: oocytes; triheteromeric recording conditions
# [25] = test system: NR1/NR2A*/NR2B triheteromeric receptors; experiment: Triheteromeric NMDA receptors in oocytes, NR1/NR2A*/NR2B; details: 10 μM CIQ; 10 mM glutamate, 100 μM glycine, 1 mM Mg2+
# [26] = test system: NR1/NR2A*/NR2C triheteromeric receptors; experiment: Triheteromeric NMDA receptors in oocytes, NR1/NR2A*/NR2C; details: 10 μM CIQ; 10 mM glutamate, 100 μM glycine, 1 mM Mg2+
# [27] = test system: NR1/NR2A*/NR2D triheteromeric receptors; experiment: Triheteromeric NMDA receptors in oocytes, NR1/NR2A*/NR2D; details: 10 μM CIQ; 10 mM glutamate, 100 μM glycine, 1 mM Mg2+
# [28] = 10 μM CIQ plus 100 μM glutamate and 30 μM glycine
# [29] = 10 μM CIQ in 100 μM glutamate and 30 μM glycine, HEK 293, 23°C
# [30] = HEK 293 cells, single exponential
# [31] = following pre-application of CIQ, HEK 293
# [32] = read-out: agonist EC50, + 20 μM CIQ
# [33] = read-out: agonist EC50, Control (no CIQ)
# T1 sequence (Q00961 20-1237, other chains not shown): as above
smiles,measurement,setting,value
"COc1ccc(OCC2c3cc(OC)c(OC)cc3CCN2C(=O)c2cccc(Cl)c2)cc1 (stereo not drawn) [CIQ, (3-chlorophenyl)(6,7-dimethoxy-1-((4-methoxyphenoxy)methyl)-3,4-dihydroisoquinolin-2(1H)-yl)methanone]",response in the presence of CIQ vs control,NR1/NR2C receptors [1]; [28],significantly different than in control
same,potentiation of NMDA-activated response,NR1/NR2C receptors [1]; 100 μM NMDA and 30 μM glycine,233 ± 13%
same,effect of CIQ alone (no agonist),NR1/NR2C receptors [1]; CIQ alone,no effect
same,maximal potentiation,NR1/NR2C receptors [1]; response without CIQ = 100%,197 ± 20%
same,response in the presence of CIQ vs control,NR1/NR2D receptors [2]; [28],significantly different than in control
same,potentiation of NMDA-activated response,NR1/NR2D receptors [2]; 100 μM NMDA and 30 μM glycine,205 ± 5%
same,effect of CIQ alone (no agonist),NR1/NR2D receptors [2]; CIQ alone,no effect
same,"potentiation of receptor response, % of control","NR1/NR2D receptors [2]; CIQ dissolved in 2-hydroxypropyl-beta-cyclodextrin solution (1% w/v), no DMSO",144 ± 3 % of control
same,maximal potentiation,NR1/NR2D receptors [2]; response without CIQ = 100%,211 ± 7%
same,effect on receptor response,NR1/NR2A receptors [3]; 10 μM CIQ,did not alter; also recorded: without affecting
same,potentiation of NMDA-activated response,NR1/NR2A receptors [3]; 100 μM NMDA plus 30 μM glycine,did not potentiate
same,effect on receptor response,NR1/NR2B receptors [4]; 10 μM CIQ,did not alter; also recorded: without affecting
same,potentiation of NMDA-activated response,NR1/NR2B receptors [4]; 100 μM NMDA plus 30 μM glycine,did not potentiate
same,effect on receptor response,AMPA (GluR1) receptor,did not alter; also recorded: not significantly different than control
same,effect on receptor response,GluR2 receptor,not significantly different than control
same,effect on receptor response,GluR3 receptor,not significantly different than control
same,effect on receptor response,GluR4 receptor,not significantly different than control
same,effect on receptor response,GluR5 receptor,not significantly different than control
same,effect on receptor response,kainate (GluR6) receptor,did not alter; also recorded: not significantly different than control
same,EC50,NR1/NR2C receptors [5],1700 nM
same,response compared to control,NR1/NR2C receptors [6]; [29],180%
same,maximal potentiation,NR1/NR2C receptors [6]; HEK 293 cells,180%
same,de-potentiation time constant tau,NR1/NR2C receptors [6]; [30],4.0 ± 0.7 s
same,10-90% rise time of receptor response,NR1/NR2C receptors [6]; [31],9 ± 1 ms
same,response compared to control,NR1/NR2D receptors [7]; [29],180%
same,potentiation of response to NMDA at 33°C,"NR1/NR2D receptors [7]; 10 μM CIQ, 33°C, HEK 293 cells",200±20%
same,maximal potentiation,NR1/NR2D receptors [7]; HEK 293 cells,180%
same,de-potentiation time constant tau,NR1/NR2D receptors [7]; [30],6.5 ± 0.7 s
same,10-90% rise time of receptor response,NR1/NR2D receptors [7]; [31],15 ± 2 ms
same,effect on receptor response,NR1/NR2A receptors [8],no effect
same,reduction in the response,NR1/NR2B receptors [9],25%
same,effect on the reversal potential,NR1/NR2D receptors [10],no detectable effect
same,"mean shut time, % of control",NR1/NR2D receptors [10],75 ± 8 % of control
same,"closed duration area, component 1",NR1/NR2D receptors [10]; composite of 6 patches,37
same,"closed duration area, component 2",NR1/NR2D receptors [10]; composite of 6 patches,18
same,"closed duration area, component 3",NR1/NR2D receptors [10]; composite of 6 patches,12
same,"closed duration area, component 4",NR1/NR2D receptors [10]; composite of 6 patches,18
same,"closed duration area, component 5",NR1/NR2D receptors [10]; composite of 6 patches,15
same,"closed duration area, component 6",NR1/NR2D receptors [10]; composite of 6 patches,0.75
same,"closed duration time constant, component 1",NR1/NR2D receptors [10]; composite of 6 patches,0.026 ms
same,"closed duration time constant, component 2",NR1/NR2D receptors [10]; composite of 6 patches,0.23 ms
same,"closed duration time constant, component 3",NR1/NR2D receptors [10]; composite of 6 patches,0.73 ms
same,"closed duration time constant, component 4",NR1/NR2D receptors [10]; composite of 6 patches,3.4 ms
same,"closed duration time constant, component 5",NR1/NR2D receptors [10]; composite of 6 patches,12 ms
same,"closed duration time constant, component 6",NR1/NR2D receptors [10]; composite of 6 patches,39 ms
same,"open period time constant 1, composite distribution",NR1/NR2D receptors [10]; composite of 6 patches,0.036 ms
same,"open period time constant 2, composite distribution",NR1/NR2D receptors [10]; composite of 6 patches,0.63 ms
same,CIQ sensitivity of chimeric receptor,[11],potentiated; also recorded: CIQ sensitivity is observed
same,CIQ activity at chimeric receptor,[12],did not show any activity
same,CIQ activity at chimeric receptor,[13],did not show any activity
same,change of CIQ potentiation vs NR2D,[14],did not significantly alter
same,change of CIQ potentiation vs NR2D,[15],attenuated; also recorded: reduced level of potentiation
same,CIQ potentiation of mutant receptor,NR1/NR2D(T592I),completely abolished; also recorded: no longer potentiated
same,potentiation of mutant receptor response,[16],135 ± 5%
same,potentiation of NMDA-activated responses compared to control,"[17]; 20 μM CIQ bath applied, −60 mV, 0.2 mM Mg2+",230 ± 29%
same,"NMDA-activated response after wash, of control amplitude",[17]; after washout of 20 μM CIQ,102 ± 11%
same,potentiation of NMDA-activated responses,[18],did not potentiate
same,solubility,[19],20 µM
same,EC50,[20],3000 nM
same,CIQ sensitivity of chimeric receptor,[21],CIQ sensitivity is observed
same,CIQ sensitivity of chimeric receptor,[22],CIQ sensitivity is observed
same,CIQ sensitivity of chimeric receptor,[23],CIQ sensitivity is observed
same,CIQ sensitivity of chimeric receptor,[24],CIQ sensitivity is observed
same,effect on receptor response,NR1/NR2A* receptors,no detectable effect; also recorded: not potentiated
same,effect on triheteromeric receptor response,[25],not potentiated; also recorded: no effect
same,effect on triheteromeric receptor response,[26],significantly potentiated
same,effect on triheteromeric receptor response,[27],significantly potentiated
"N[C@@H](CCC(=O)O)C(=O)O [Glutamate, reference compound]",Slope,NR1/NR2C receptors [1],1.5
same,EC50,NR1/NR2C receptors [1]; [32],620 ± 40 nM
same,EC50,NR1/NR2C receptors [1]; [33],740 ± 60 nM
same,Slope,NR1/NR2D receptors [2],1.5
same,EC50,NR1/NR2D receptors [2]; [32],240 ± 20 nM
same,EC50,NR1/NR2D receptors [2]; [33],300 ± 30 nM
"NCC(=O)O [Glycine, reference compound]",Slope,NR1/NR2C receptors [1],1.5
same,Slope,NR1/NR2D receptors [2],1.5

# Source: PMC3113701 (Nature communications, 2010)
